How the values were obtained:
[1] = In vitro metabolism in rat liver microsomes; type: in vitro ADME
Experimental: (§1) The total volume of each incubation system was 200 μL, and the medium was 100 mM phosphate buffer solution (PBS, pH7.4) comprising a final concentration of 3 μM DC037009 and 2 mM NADPH. A37° C. water bath was used for incubation. After 3 minutes of pre-incubation, various liver microsomes protein were added into the buffer-substrate-cofactors mixture to start reaction. The concentration of liver microsomal protein of various species was 1.0 mg/mL. After reacting 60 min, the reaction was terminated with isovolumetric ice-cold acetonitrile. The total volume of blank was 200 μL, and the medium was 100 mM phosphate buffer solution (PBS, pH 7.4), comprising a final concentration of 3 μM DC037009 and heat inactivated microsomal proteins. All incubation samples were double.
(§2) A 150 μL sample from each of double incubation samples was mixed. A 300 μL of acetonitrile was added, mixed by vortexing for 1 min, and centrifuged 5 min (11000 rpm). The supernatant was placed in a 10 mL tube, and dried in 40° C. with nitrogen stream. The residue was dissolved with 100 μL methanol/water (1:9, v/v). A 10 μL sample was taken for UPLC/Q-TOF MS analysis.

[2] = In vitro metabolism in mouse liver microsomes; type: in vitro ADME, mice
Experimental: as §1, §2

SD rats [3] = experiment: Acute toxicity experiment on SD rats by oral gavage; type: in vivo; conditions: single dose of 500 and 1000 mg/kg by oral gavage
Experimental: (§3) SD rats were administered compound DC037009 with single dose of 500 and 1000 mg/kg by oral gavage.

[4] = as above; type: in vivo; conditions: rat, in vivo, single dose, oral gavage, read-out: maximum tolerated dose (MTD)
Experimental: as §3

[5] = In vitro metabolism in human liver microsomes; type: in vitro ADME
Experimental: as §1, §2

SD rats [6] = experiment: Repetitive dose toxicity experiment on SD rats for 14 days; type: in vivo; conditions: oral, 100 and 200 mg/kg for 14 days
rat seminal vesicle = experiment: Seminal vesicle contraction caused by electrical stimulation of hypogastric nerve in normal rats; type: in vivo; conditions: P>0.05
Source text: Effect of DC037009 on Seminal Vesicle Contraction Caused by Electrical Stimulation of Hypogastric Nerve in Normal Rats

hERG = hERG (Homo sapiens, UniProt Q12809); experiment: Inhibition effect on hERG; type: cell-based
Sequence of hERG (Q12809 whole entry): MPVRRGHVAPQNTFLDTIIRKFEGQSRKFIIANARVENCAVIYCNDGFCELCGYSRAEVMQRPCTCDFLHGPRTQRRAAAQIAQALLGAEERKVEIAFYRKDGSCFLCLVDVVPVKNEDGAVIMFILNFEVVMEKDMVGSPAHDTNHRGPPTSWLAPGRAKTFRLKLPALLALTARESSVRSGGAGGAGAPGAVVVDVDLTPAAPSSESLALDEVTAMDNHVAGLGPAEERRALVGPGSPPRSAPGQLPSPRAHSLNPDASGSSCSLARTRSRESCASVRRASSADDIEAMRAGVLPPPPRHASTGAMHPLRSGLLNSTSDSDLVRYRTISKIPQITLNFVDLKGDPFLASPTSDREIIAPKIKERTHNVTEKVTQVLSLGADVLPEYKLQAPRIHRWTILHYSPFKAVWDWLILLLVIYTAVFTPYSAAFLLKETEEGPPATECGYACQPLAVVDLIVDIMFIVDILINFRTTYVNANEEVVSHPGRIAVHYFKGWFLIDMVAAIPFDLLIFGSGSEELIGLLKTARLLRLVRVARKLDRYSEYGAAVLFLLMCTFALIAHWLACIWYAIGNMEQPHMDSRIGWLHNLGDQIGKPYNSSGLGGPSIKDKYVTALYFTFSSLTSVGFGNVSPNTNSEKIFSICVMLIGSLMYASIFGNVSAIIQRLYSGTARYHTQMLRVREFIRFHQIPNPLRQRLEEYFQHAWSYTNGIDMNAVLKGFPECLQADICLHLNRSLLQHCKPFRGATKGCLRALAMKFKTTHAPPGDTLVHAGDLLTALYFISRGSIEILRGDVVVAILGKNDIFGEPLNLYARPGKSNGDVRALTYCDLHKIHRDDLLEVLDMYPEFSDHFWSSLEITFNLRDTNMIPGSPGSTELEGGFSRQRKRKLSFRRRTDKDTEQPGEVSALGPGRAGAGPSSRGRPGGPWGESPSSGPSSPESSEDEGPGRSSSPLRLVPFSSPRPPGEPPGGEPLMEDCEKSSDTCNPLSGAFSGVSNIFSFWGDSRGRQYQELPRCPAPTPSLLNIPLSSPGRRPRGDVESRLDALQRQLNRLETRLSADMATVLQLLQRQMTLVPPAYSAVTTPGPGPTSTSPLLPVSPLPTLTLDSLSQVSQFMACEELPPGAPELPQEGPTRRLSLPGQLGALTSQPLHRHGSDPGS

[7] = In vitro metabolism in monkey liver microsomes; type: in vitro ADME
Experimental: as §1, §2

[8] = In vitro metabolism in dog liver microsomes; type: in vitro ADME
Experimental: as §1, §2

[9] = 3 μM DC037009, 1.0 mg/mL microsomal protein, NADPH, 60 min, UPLC/Q-TOF MS

For `COc1cc2c(cc1OC)CN1CCc3cc4c(cc3[C@@H]1C2)OCO4` [DC037009, S-(−)-2,3-methylenedioxy-10,11-dimethoxy-5,8,13,13a-tetrahydro-6H-dibenzo[a,g]quinolizine], the “Mass area, rat” value [1, 9] was 115.4, the “kinds of metabolites detected in rat liver microsome” value ([1]; 60 min incubation) was “eight” and the “Mass area, mice” value [2, 9] was 6.3. The “kinds of metabolites detected in mouse liver microsome” value ([2]; 60 min incubation) was “eight”, the “metabolic stability in mouse liver microsome” value ([2]; 60 min incubation) was “unstable” and the changes after anatomy (SD rats [3]) was “no obvious drug-related changes”. For the same compound, the MTD [4] was 1000 mg/kg, the “Mass area, Human” value [5, 9] was 416.8 and the “kinds of metabolites detected in human liver microsome” value ([5]; 60 min incubation) was “Four”. The “metabolic stability in human liver microsome” value ([5]; 60 min incubation) was “relatively higher”, the “changes of blood and coagulation indicators and serum biochemical indicators” value (SD rats [6]) was “did not show any toxicological significance” and the death (SD rats [6]) was “no death rat was found”. The gross anatomy (SD rats [6]) was “no pathological changes related to administrated drug”, the “effect on contraction amplitude and area under contraction curve in rat seminal vesicle induced by electrical stimulation” value (rat seminal vesicle) was “no significant inhibitive effect” and the “antagonistic activity to α1A-receptor relative to inhibitory activity on hERG” value (hERG) was 272 folds. For the same compound, the IC50 (hERG; hERG) was 8.1 µM, the “Maximum inhibition rate (%)” value (hERG; hERG) was 84.7% and the “Mass area, monkey” value [7, 9] was 1.6. The “kinds of metabolites detected in monkey liver microsome” value ([7]; 60 min incubation) was “seven”, the “metabolic stability in monkey liver microsome” value ([7]; 60 min incubation) was “unstable” and the “Mass area, dog” value [8, 9] was 171.3. The “kinds of metabolites detected in dog liver microsome” value ([8]; 60 min incubation) was “six” and the “metabolic stability in dog liver microsome” value ([8]; 60 min incubation) was “in second place”.
